Assay [1] relates to harmful plants such as Sinapis alba, Echinochloa crus-galli, Lolium multiflorum, Stellaria media, Cyperus iria, Amaranthus retroflexus, Setaria viridis, Avena …. Briefly: Post-emergence effect on weeds (greenhouse pot test). Type of assay: in vivo. The settings on record: application rate of 2 kg or less of active ingredient per hectare; treated in the three-leaf stage; scored after approx. 3 to 4 weeks by comparison with untreated controls.

Assay [2] concerns harmful plants such as Stellaria media, Lolium multiforum, Amaranthus retroflexus, Sinapis alba, Avena sativa and Setaria viridis. The assay is described as follows: Pre-emergence effect on weeds (greenhouse pot test). Type of assay: in vivo. The conditions noted are these: application rate of 1 kg or less of active ingredient per hectare; scored after 3 to 4 weeks by comparison with untreated controls. The text has this:
Seeds or rhizome pieces of monocotyledonous and dicotyledonous weed plants were placed in sandy loam in plastic pots and covered with soil. The compounds according to the invention, which were formulated in the form of wettable powders or emulsion concentrates, were then applied to the surface of the soil cover as aqueous suspension or emulsion at various dosages with an application rate of 600 to 800 l of water per ha (converted).
After the treatment, the pots were placed into a greenhouse and kept under good growth conditions for the weeds. The plant or emergence damage was scored visually after the test plants have emerged after an experimental time of 3 to 4 weeks by comparison with untreated controls.

Molecules are shown by their SMILES.

On to `Cc1ccc2c(c1)C(Nc1nc(N)nc(C(F)C#N)n1)C(C)C2` (mixture of isomers) [Compound 7.243], for which the “herbicidal post-emergence activity against harmful plants (scored visually)” value (“herbicidal post-emergence activity” for short) in assay [1] was “very good herbicidal post-emergence activity”. Also, the “pre-emergence control of harmful plants (plant or emergence damage scored visually)” value (shortened to “pre-emergence control of harmful plants”) in assay [2] is reported as “very good pre-emergence control”.

As for `CCC(F)c1nc(N)nc(NC2c3ccccc3CC2C)n1` (mixture of isomers) [Compound 9.36], the “herbicidal post-emergence activity” value in assay [1] was “very good herbicidal post-emergence activity”. Moreover, the “pre-emergence control of harmful plants” value in assay [2] is “very good pre-emergence control”.

Take `CC(F)c1nc(N)nc(NC2CCc3ccccc32)n1` (mixture of isomers) [Compound 10.1]: in assay [1], the “herbicidal post-emergence activity” value is “very good herbicidal post-emergence activity”. Further, the “pre-emergence control of harmful plants” value in assay [2] is on record as “very good pre-emergence control”.

In the case of `CCC(F)c1nc(N)nc(N[C@@H]2CCc3ccc(F)cc32)n1` (mixture of isomers) [Compound 10.38], in assay [1], the “herbicidal post-emergence activity” value is “very good herbicidal post-emergence activity”. Further, the “pre-emergence control of harmful plants” value in assay [2] is on record as “very good pre-emergence control”.

Consider `CCCC(F)c1nc(N)nc(NC2CCOc3c(C)cc(C)cc32)n1` (mixture of isomers) [Compound 10.67], for which, in assay [1], the “herbicidal post-emergence activity” value is recorded as “very good herbicidal post-emergence activity”. The “pre-emergence control of harmful plants” value in assay [2] is reported as “very good pre-emergence control”.

`CCC(F)c1nc(N)nc(NC2CCCc3c(C)cc(C)cc32)n1` (mixture of isomers) [Compound 10.68]: the “herbicidal post-emergence activity” value in assay [1] was “very good herbicidal post-emergence activity”. The “pre-emergence control of harmful plants” value in assay [2] is “very good pre-emergence control”.

For the compound `C[C@@H](F)c1nc(N)nc(N[C@@H]2CCc3ccccc32)n1` [Compound 1.1], in assay [1], the “herbicidal post-emergence activity” value is listed as “very good herbicidal post-emergence activity”. Further, the “pre-emergence control of harmful plants” value in assay [2] is “very good pre-emergence control”.

Consider `Cc1ccc2c(c1)[C@H](Nc1nc(N)nc([C@@H](C)F)n1)CC2` [Compound 1.2], for which the “herbicidal post-emergence activity” value in assay [1] is listed as “very good herbicidal post-emergence activity”. Moreover, the “pre-emergence control of harmful plants” value in assay [2] was “very good pre-emergence control”.

For `C[C@@H](F)c1nc(N)nc(N[C@@H]2CCc3ccc(F)cc32)n1` [Compound 1.3], the “herbicidal post-emergence activity” value in assay [1] is “very good herbicidal post-emergence activity”. Further, the “pre-emergence control of harmful plants” value in assay [2] is “very good pre-emergence control”.

On to `Cc1cc2c(cc1C)[C@H](Nc1nc(N)nc([C@@H](C)F)n1)CC2` [Compound 1.7], for which the “herbicidal post-emergence activity” value in assay [1] was “very good herbicidal post-emergence activity”. In addition, in assay [2], the “pre-emergence control of harmful plants” value was “very good pre-emergence control”.

In the case of `C[C@@H](F)c1nc(N)nc(N[C@@H]2CCCc3ccccc32)n1` [Compound 1.11], the “herbicidal post-emergence activity” value in assay [1] is “very good herbicidal post-emergence activity”. Also, in assay [2], the “pre-emergence control of harmful plants” value is listed as “very good pre-emergence control”.

With `Cc1ccc2c(c1)[C@H](Nc1nc(N)nc([C@@H](C)F)n1)CCC2` [Compound 1.12], the “herbicidal post-emergence activity” value in assay [1] is given as “very good herbicidal post-emergence activity”. In addition, the “pre-emergence control of harmful plants” value in assay [2] was “very good pre-emergence control”.

As to `Cc1cc(C)c2c(c1)[C@H](Nc1nc(N)nc([C@@H](C)F)n1)CCC2` [Compound 1.15], the “herbicidal post-emergence activity” value in assay [1] is listed as “very good herbicidal post-emergence activity”. In assay [2], the “pre-emergence control of harmful plants” value is listed as “very good pre-emergence control”.

`Cc1ccc2c(c1)[C@H](Nc1nc(N)nc([C@@H](C)F)n1)CCO2` [Compound 1.21]: the “herbicidal post-emergence activity” value in assay [1] is “very good herbicidal post-emergence activity”. In addition, in assay [2], the “pre-emergence control of harmful plants” value was “very good pre-emergence control”.

Take `C[C@@H](Cl)c1nc(N)nc(N[C@@H]2CCc3ccccc32)n1` [Compound 1.24]: in assay [1], the “herbicidal post-emergence activity” value is “very good herbicidal post-emergence activity”. Besides, the “pre-emergence control of harmful plants” value in assay [2] is “very good pre-emergence control”.

Regarding `C[C@@H](Cl)c1nc(N)nc(N[C@@H]2CCCc3ccccc32)n1` [Compound 1.28], in assay [1], the “herbicidal post-emergence activity” value is recorded as “very good herbicidal post-emergence activity”. Also, in assay [2], the “pre-emergence control of harmful plants” value is “very good pre-emergence control”.

`C[C@@H](Cl)c1nc(N)nc(N[C@@H]2CCOc3ccccc32)n1` [Compound 1.31]: the “herbicidal post-emergence activity” value in assay [1] was “very good herbicidal post-emergence activity”. The “pre-emergence control of harmful plants” value in assay [2] is listed as “very good pre-emergence control”.

Take `Cc1ccc2c(c1C)OCC[C@H]2Nc1nc(N)nc([C@@H](C)F)n1` [Compound 1.66]: in assay [1], the “herbicidal post-emergence activity” value was “very good herbicidal post-emergence activity”. Also, the “pre-emergence control of harmful plants” value in assay [2] is listed as “very good pre-emergence control”.

In the case of `C[C@@H](F)c1nc(N)nc(N[C@@H]2CCOc3c(F)cccc32)n1` [Compound 1.67], the “herbicidal post-emergence activity” value in assay [1] is listed as “very good herbicidal post-emergence activity”. In assay [2], the “pre-emergence control of harmful plants” value is reported as “very good pre-emergence control”.

For `CCc1ccc2c(c1)[C@H](Nc1nc(N)nc([C@@H](C)F)n1)CC2` [Compound 1.68], in assay [1], the “herbicidal post-emergence activity” value is on record as “very good herbicidal post-emergence activity”. The “pre-emergence control of harmful plants” value in assay [2] is “very good pre-emergence control”.

As for `COc1ccc2c(c1)[C@H](Nc1nc(N)nc([C@@H](C)F)n1)CC2` [Compound 1.69], in assay [1], the “herbicidal post-emergence activity” value is on record as “very good herbicidal post-emergence activity”. In assay [2], the “pre-emergence control of harmful plants” value is “very good pre-emergence control”.

With `Cc1ccc2c(c1)[C@H](Nc1nc(N)nc([C@@H](C)F)n1)[C@@H](C)C2` [Compound 2.2], the “herbicidal post-emergence activity” value in assay [1] was “very good herbicidal post-emergence activity”. Moreover, the “pre-emergence control of harmful plants” value in assay [2] is listed as “very good pre-emergence control”.

As for `C[C@@H](F)c1nc(N)nc(N[C@H]2c3cc(Cl)ccc3C[C@@H]2C)n1` [Compound 2.4], the “herbicidal post-emergence activity” value in assay [1] was “very good herbicidal post-emergence activity”. Besides, in assay [2], the “pre-emergence control of harmful plants” value is reported as “very good pre-emergence control”.

As for `C[C@@H](F)c1nc(N)nc(N[C@H]2c3ccccc3CC[C@@H]2C)n1` [Compound 2.11], the “herbicidal post-emergence activity” value in assay [1] is “very good herbicidal post-emergence activity”. In addition, in assay [2], the “pre-emergence control of harmful plants” value is given as “very good pre-emergence control”.

`Cc1ccc2c(c1)[C@H](Nc1nc(N)nc([C@@H](C)Cl)n1)[C@@H](C)C2` [Compound 2.25]: the “herbicidal post-emergence activity” value in assay [1] is on record as “very good herbicidal post-emergence activity”. The “pre-emergence control of harmful plants” value in assay [2] was “very good pre-emergence control”.

As to `Cc1ccc2c(c1)[C@H](Nc1nc(N)nc([C@@H](C)Cl)n1)[C@@H](C)CC2` [Compound 2.28], in assay [1], the “herbicidal post-emergence activity” value is reported as “very good herbicidal post-emergence activity”. Moreover, the “pre-emergence control of harmful plants” value in assay [2] was “very good pre-emergence control”.

For the compound `C[C@H](F)c1nc(N)nc(N[C@@H]2CCc3ccccc32)n1` [Compound 3.1], the “herbicidal post-emergence activity” value in assay [1] is on record as “very good herbicidal post-emergence activity”. For the same compound, in assay [2], the “pre-emergence control of harmful plants” value is “very good pre-emergence control”.

On to `Cc1ccc2c(c1)[C@H](Nc1nc(N)nc([C@H](C)F)n1)CC2` [Compound 3.2], for which, in assay [1], the “herbicidal post-emergence activity” value was “very good herbicidal post-emergence activity”. The “pre-emergence control of harmful plants” value in assay [2] is recorded as “very good pre-emergence control”.

Take `Cc1cc2c(cc1C)[C@H](Nc1nc(N)nc([C@H](C)F)n1)CC2` [Compound 3.7]: the “herbicidal post-emergence activity” value in assay [1] is “very good herbicidal post-emergence activity”. The “pre-emergence control of harmful plants” value in assay [2] was “very good pre-emergence control”.

Turning to `C[C@H](F)c1nc(N)nc(N[C@@H]2CCCc3ccccc32)n1` [Compound 3.11], in assay [1], the “herbicidal post-emergence activity” value is recorded as “very good herbicidal post-emergence activity”. Besides, in assay [2], the “pre-emergence control of harmful plants” value is “very good pre-emergence control”.

For the compound `Cc1cc(C)c2c(c1)[C@H](Nc1nc(N)nc([C@H](C)F)n1)CCC2` [Compound 3.15], the “herbicidal post-emergence activity” value in assay [1] is “very good herbicidal post-emergence activity”. Also, in assay [2], the “pre-emergence control of harmful plants” value is on record as “very good pre-emergence control”.

For the compound `C[C@H](F)c1nc(N)nc(N[C@@H]2CCOc3ccccc32)n1` [Compound 3.20], the “herbicidal post-emergence activity” value in assay [1] was “very good herbicidal post-emergence activity”. Besides, in assay [2], the “pre-emergence control of harmful plants” value is on record as “very good pre-emergence control”.

(Values after patent US8114991B2, “Amino-1,3,5-triazines N-substituted with chiral bicyclic radicals, process for their preparation, compositions thereof, and their use as herbicides and plant growth regulators” (Bayer Cropscience AG, priority 2003, dated 2012).)
